In article PMC9186362, “Design and biological evaluation of substituted 5,7-dihydro-6H-indolo[2,3-c]quinolin-6-one as novel selective Haspin inhibitors” (Journal of Enzyme Inhibition and Medicinal Chemistry, 2022):

Assays:
Assay in all cases: SelectScreen ZLYTE
Type in all cases: biochemical
NEK2 = molecular target: T1, NEK2 (Homo sapiens, UniProt P51955); details: ATP Km, read-out: Percentage of inhibition
T1 construct: purchased Life Technologies (SelectScreen Whole Panel)
Summary of the method: (§1)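 Compound tested at 1 μM only; no dose–response. Data are % inhibition from a whole-panel kinase screen.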

CAMK1G (CAMKI gamma) = CAMK1G (CAMKI gamma) (Homo sapiens, UniProt Q96NX5); details: ATP Km, read-out: Percentage of inhibition
Summary of the method: as §1

PRKCI (PKC iota) = PRKCI (PKC iota) (Homo sapiens, UniProt P41743); details: ATP Km, read-out: Percentage of inhibition
Summary of the method: as §1

PRKCD (PKC delta) = PRKCD (PKC delta) (Homo sapiens, UniProt Q05655); details: ATP Km, read-out: Percentage of inhibition
Summary of the method: as §1

ABL1 G250E = molecular target: T2, ABL1 G250E (Homo sapiens, UniProt P00519, G250E); details: ATP Km, read-out: Percentage of inhibition
T2 construct: purchased Life Technologies (SelectScreen Whole Panel service)
Summary of the method: as §1

PTK2 (FAK) = molecular target: T3, PTK2 (FAK) (Homo sapiens, UniProt Q05397); details: ATP Km, read-out: Percentage of inhibition
T3 construct: purchased Life Technologies (SelectScreen service)
Summary of the method: as §1

INSRR (IRR) = molecular target: T4, INSRR (IRR) (Homo sapiens, UniProt P14616); details: ATP Km, read-out: Percentage of inhibition
T4 construct: purchased Life Technologies (SelectScreen Whole Panel)
Summary of the method: as §1

STK23 (MSSK1) = molecular target: T5, STK23 (MSSK1) (Homo sapiens, UniProt Q9UPE1); details: ATP Km, read-out: Percentage of inhibition
T5 construct: purchased Life Technologies
Summary of the method: as §1

RAF1 (cRAF) Y340D Y341D = molecular target: T6, RAF1 (cRAF) Y340D Y341D (Homo sapiens, UniProt P04049, Y340D/Y341D); details: ATP 100 µM, read-out: Percentage of inhibition
T6 construct: purchased Life Technologies
T6 sequence (P04049 whole entry Y340D/Y341D): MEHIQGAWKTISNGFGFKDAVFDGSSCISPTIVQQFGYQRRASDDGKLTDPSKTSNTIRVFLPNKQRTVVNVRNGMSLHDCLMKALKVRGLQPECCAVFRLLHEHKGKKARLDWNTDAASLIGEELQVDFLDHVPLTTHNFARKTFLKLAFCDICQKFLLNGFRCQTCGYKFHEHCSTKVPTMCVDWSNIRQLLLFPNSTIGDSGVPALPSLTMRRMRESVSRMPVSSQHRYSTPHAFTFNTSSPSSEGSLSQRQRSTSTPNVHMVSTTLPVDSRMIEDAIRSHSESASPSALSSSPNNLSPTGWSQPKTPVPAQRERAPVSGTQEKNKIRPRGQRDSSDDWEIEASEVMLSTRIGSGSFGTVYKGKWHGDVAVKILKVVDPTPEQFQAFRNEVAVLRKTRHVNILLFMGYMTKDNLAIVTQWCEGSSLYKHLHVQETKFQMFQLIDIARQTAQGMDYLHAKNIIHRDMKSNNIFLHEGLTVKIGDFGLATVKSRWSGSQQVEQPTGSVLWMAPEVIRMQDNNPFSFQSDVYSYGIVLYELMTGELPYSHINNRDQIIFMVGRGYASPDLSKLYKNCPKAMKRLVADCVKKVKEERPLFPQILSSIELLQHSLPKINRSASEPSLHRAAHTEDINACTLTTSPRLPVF
Summary of the method: as §1

PAK6 = molecular target: T7, PAK6 (Homo sapiens, UniProt Q9NQU5); details: ATP Km, read-out: Percentage of inhibition
T7 construct: purchased Life Technologies
Summary of the method: as §1

STK22D (TSSK1) = molecular target: T8, STK22D (TSSK1) (Homo sapiens, UniProt Q9BXA7); details: ATP Km, read-out: Percentage of inhibition
T8 construct: purchased Life Technologies (SelectScreen Whole Panel service)
Summary of the method: as §1

CAMK2B (CaMKII beta) = molecular target: T9, CAMK2B (CaMKII beta) (Homo sapiens, UniProt Q13554); details: ATP Km, read-out: Percentage of inhibition
T9 construct: purchased Life Technologies (SelectScreen Whole Panel service)
Summary of the method: as §1

MAP3K19 (YSK4) = molecular target: T10, MAP3K19 (YSK4) (Homo sapiens, UniProt Q56UN5); details: ATP Km, read-out: Percentage of inhibition
T10 construct: purchased Life Technologies (SelectScreen Whole Panel)
Summary of the method: as §1

PDGFRA (PDGFR alpha) = molecular target: T11, PDGFRA (PDGFR alpha) (Homo sapiens, UniProt P16234); details: ATP Km, read-out: Percentage of inhibition
T11 construct: purchased Life Technologies (SelectScreen Whole Panel service)
T11 sequence (P16234 24-1089): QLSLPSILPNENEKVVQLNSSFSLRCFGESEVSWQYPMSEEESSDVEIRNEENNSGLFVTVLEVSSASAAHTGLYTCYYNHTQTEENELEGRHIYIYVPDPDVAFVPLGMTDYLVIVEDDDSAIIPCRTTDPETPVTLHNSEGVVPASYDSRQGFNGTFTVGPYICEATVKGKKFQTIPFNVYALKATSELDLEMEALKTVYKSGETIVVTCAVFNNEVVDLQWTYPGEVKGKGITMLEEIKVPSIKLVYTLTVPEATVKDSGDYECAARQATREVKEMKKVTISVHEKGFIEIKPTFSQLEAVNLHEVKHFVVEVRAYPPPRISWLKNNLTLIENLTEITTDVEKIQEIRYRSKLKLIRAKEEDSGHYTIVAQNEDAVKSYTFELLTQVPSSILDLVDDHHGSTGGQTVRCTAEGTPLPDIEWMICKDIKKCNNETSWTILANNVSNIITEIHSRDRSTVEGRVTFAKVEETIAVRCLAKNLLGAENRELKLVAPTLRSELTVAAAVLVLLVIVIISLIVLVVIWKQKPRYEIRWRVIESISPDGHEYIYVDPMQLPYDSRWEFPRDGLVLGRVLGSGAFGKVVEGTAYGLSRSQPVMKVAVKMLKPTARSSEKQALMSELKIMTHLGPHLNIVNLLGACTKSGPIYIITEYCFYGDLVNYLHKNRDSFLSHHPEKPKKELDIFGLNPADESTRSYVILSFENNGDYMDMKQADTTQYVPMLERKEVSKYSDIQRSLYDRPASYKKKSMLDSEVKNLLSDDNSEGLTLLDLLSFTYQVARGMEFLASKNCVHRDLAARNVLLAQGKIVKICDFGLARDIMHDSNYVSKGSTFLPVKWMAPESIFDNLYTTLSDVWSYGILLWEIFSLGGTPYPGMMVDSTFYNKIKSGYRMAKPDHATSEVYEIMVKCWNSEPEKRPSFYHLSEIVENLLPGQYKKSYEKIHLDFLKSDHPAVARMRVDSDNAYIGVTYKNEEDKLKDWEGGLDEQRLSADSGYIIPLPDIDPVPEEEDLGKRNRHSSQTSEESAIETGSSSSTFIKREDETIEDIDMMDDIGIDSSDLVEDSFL
Summary of the method: as §1

EPHA2 = molecular target: T12, EPHA2 (Homo sapiens, UniProt P29317); details: ATP Km, read-out: Percentage of inhibition
T12 construct: purchased Life Technologies
Summary of the method: as §1

MAPK14 (p38 alpha) = molecular target: T13, MAPK14 (p38 alpha) (Homo sapiens, UniProt Q16539); details: ATP 100 µM, read-out: Percentage of inhibition
T13 construct: purchased Life Technologies (SelectScreen Whole Panel service)
Summary of the method: as §1

TXK = TXK (Homo sapiens, UniProt P42681); details: ATP Km, read-out: Percentage of inhibition
Summary of the method: as §1

MAPK8 (JNK1) = molecular target: T14, MAPK8 (JNK1) (Homo sapiens, UniProt P45983); details: ATP 10 µM, read-out: Percentage of inhibition
T14 construct: purchased Life Technologies (SelectScreen Whole Panel service)
Summary of the method: as §1

PDGFRA V561D = molecular target: T15, PDGFRA V561D (Homo sapiens, UniProt P16234, V561D); details: ATP Km, read-out: Percentage of inhibition
T15 construct: purchased Life Technologies (SelectScreen service)
T15 sequence (P16234 24-1089 V561D): as the sequence (P16234 24-1089) above, with V538D counted along it
Summary of the method: as §1

ABL1 Y253F = molecular target: T16, ABL1 Y253F (Homo sapiens, UniProt P00519, Y253F); details: ATP Km, read-out: Percentage of inhibition
T16 construct: purchased Life Technologies (SelectScreen Whole Panel)
Summary of the method: as §1

PRKD2 (PKD2) = molecular target: T17, PRKD2 (PKD2) (Homo sapiens, UniProt Q9BZL6); details: ATP Km, read-out: Percentage of inhibition
T17 construct: purchased Life Technologies
Summary of the method: as §1

MKNK1 (MNK1) = MKNK1 (MNK1) (Homo sapiens, UniProt Q9BUB5); details: ATP Km, read-out: Percentage of inhibition
MKNK1 (MNK1), sequence (Q9BUB5 whole entry): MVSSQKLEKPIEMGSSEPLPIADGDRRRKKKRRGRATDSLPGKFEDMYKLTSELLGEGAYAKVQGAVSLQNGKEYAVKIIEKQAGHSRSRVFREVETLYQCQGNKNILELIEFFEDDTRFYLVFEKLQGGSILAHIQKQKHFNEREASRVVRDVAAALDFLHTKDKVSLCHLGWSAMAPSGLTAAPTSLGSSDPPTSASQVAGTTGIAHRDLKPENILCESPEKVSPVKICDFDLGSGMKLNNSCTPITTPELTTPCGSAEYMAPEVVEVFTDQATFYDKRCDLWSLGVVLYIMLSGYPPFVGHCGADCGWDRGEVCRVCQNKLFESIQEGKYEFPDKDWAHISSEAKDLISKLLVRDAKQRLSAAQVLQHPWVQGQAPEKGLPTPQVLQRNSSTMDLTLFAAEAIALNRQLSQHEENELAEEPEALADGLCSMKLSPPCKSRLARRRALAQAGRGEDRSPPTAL
Summary of the method: as §1

PRKACA (PKA) = molecular target: T18, PRKACA (PKA) (Homo sapiens, UniProt P17612); details: ATP Km, read-out: Percentage of inhibition
T18 construct: purchased Life Technologies (SelectScreen)
Summary of the method: as §1

TBK1 = molecular target: T19, TBK1 (Homo sapiens, UniProt Q9UHD2); details: ATP Km, read-out: Percentage of inhibition
T19 construct: purchased Life Technologies (SelectScreen Whole Panel service)
T19 sequence (Q9UHD2 whole entry): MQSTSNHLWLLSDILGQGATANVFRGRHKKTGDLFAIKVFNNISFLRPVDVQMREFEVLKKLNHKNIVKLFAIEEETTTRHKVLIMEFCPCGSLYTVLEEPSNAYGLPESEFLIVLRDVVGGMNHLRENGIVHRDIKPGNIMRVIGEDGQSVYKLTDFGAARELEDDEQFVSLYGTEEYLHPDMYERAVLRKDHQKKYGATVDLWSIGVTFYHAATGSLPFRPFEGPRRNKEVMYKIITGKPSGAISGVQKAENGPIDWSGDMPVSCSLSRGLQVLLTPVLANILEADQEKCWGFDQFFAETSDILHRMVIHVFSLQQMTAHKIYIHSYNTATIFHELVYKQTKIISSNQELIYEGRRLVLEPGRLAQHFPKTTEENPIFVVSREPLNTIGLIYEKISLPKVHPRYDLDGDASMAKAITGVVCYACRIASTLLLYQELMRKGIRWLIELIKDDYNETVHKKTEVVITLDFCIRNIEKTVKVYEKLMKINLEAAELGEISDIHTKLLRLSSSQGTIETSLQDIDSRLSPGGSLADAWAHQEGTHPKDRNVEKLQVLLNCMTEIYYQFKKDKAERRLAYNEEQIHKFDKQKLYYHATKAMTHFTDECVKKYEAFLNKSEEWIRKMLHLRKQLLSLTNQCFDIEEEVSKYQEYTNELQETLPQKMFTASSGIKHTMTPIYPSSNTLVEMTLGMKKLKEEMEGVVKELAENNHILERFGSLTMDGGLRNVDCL
Summary of the method: as §1

MAPK7 (ERK5) = molecular target: T20, MAPK7 (ERK5) (Homo sapiens, UniProt Q13164); details: ATP Km, read-out: Percentage of inhibition
T20 construct: purchased Life Technologies (SelectScreen)
Summary of the method: as §1

ABL1 F317L = molecular target: T21, ABL1 F317L (Homo sapiens, UniProt P00519, F317L); details: ATP Km, read-out: Percentage of inhibition
T21 construct: purchased Life Technologies (SelectScreen)
Summary of the method: as §1

PDGFRA D842V = molecular target: T22, PDGFRA D842V (Homo sapiens, UniProt P16234, D842V); details: ATP Km, read-out: Percentage of inhibition
T22 construct: purchased Life Technologies (SelectScreen Whole Panel service)
T22 sequence (P16234 24-1089 D842V): as the sequence (P16234 24-1089) above, with D819V counted along it
Summary of the method: as §1

PRKCQ (PKC theta) = PRKCQ (PKC theta) (Homo sapiens, UniProt Q04759); details: ATP Km, read-out: Percentage of inhibition
Summary of the method: as §1

RET Y791F = molecular target: T23, RET Y791F (Homo sapiens, UniProt P07949, Y791F); details: ATP Km, read-out: Percentage of inhibition
T23 construct: purchased Life Technologies
Summary of the method: as §1

NTRK3 (TRKC) = molecular target: T24, NTRK3 (TRKC) (Homo sapiens, UniProt Q16288); details: ATP Km, read-out: Percentage of inhibition
T24 construct: purchased Life Technologies
Summary of the method: as §1

DYRK1B = molecular target: T25, DYRK1B (Homo sapiens, UniProt Q9Y463); details: ATP Km, read-out: Percentage of inhibition
T25 construct: purchased Life Technologies
Summary of the method: as §1

LYN B = LYN B (Homo sapiens, UniProt P07948); details: ATP Km, read-out: Percentage of inhibition
LYN B, sequence (P07948 1-491 isoform P07948-2): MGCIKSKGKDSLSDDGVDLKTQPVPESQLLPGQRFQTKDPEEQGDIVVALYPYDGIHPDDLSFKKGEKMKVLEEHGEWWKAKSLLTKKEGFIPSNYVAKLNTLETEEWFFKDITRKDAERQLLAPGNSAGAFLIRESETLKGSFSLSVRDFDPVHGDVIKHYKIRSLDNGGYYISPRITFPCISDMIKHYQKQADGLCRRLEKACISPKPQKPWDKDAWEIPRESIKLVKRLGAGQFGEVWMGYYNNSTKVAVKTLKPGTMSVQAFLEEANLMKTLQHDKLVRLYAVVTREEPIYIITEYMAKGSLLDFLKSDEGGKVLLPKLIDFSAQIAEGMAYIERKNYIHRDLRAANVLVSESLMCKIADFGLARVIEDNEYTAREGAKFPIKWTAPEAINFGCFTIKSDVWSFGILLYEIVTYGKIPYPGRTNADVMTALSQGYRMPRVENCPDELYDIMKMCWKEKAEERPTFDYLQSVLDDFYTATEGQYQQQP
Summary of the method: as §1

EGFR (ErbB1) G719C = molecular target: T26, EGFR (ErbB1) G719C (Homo sapiens, UniProt P00533, G719C); details: ATP Km, read-out: Percentage of inhibition
T26 construct: purchased Life Technologies (SelectScreen)
Summary of the method: as §1

TYRO3 (RSE) = TYRO3 (RSE) (Homo sapiens, UniProt Q06418); details: ATP Km, read-out: Percentage of inhibition
TYRO3 (RSE), sequence (Q06418 41-890): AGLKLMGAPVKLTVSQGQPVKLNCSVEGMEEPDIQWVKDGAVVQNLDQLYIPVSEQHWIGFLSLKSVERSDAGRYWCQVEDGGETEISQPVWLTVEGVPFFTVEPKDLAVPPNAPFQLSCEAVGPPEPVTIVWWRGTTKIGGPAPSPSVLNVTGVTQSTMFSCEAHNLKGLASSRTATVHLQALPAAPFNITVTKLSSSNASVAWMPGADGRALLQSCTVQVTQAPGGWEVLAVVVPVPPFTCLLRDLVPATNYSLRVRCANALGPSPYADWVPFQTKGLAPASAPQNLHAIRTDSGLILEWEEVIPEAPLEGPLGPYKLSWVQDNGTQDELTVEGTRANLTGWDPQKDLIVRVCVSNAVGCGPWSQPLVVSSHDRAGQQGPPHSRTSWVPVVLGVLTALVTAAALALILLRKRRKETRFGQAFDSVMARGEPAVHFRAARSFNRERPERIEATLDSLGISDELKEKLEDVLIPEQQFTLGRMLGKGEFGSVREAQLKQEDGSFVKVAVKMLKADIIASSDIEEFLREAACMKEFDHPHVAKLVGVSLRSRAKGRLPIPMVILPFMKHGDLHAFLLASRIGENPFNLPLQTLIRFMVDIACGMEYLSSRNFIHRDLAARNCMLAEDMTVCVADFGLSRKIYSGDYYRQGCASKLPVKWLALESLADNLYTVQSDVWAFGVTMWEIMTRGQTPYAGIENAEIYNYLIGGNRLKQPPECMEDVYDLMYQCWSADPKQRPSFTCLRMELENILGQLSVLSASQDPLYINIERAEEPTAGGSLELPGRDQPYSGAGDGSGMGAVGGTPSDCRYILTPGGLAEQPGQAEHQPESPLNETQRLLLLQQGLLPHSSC
Summary of the method: as §1

SYK = molecular target: T27, SYK (Homo sapiens, UniProt P43405); details: ATP Km, read-out: Percentage of inhibition
T27 construct: purchased Life Technologies (SelectScreen service)
Summary of the method: as §1

JAK1 = molecular target: T28, JAK1 (Homo sapiens, UniProt P23458); details: ATP Km, read-out: Percentage of inhibition
T28 construct: purchased Life Technologies (SelectScreen service)
Summary of the method: as §1

CDK5/p35 = molecular target: T29, CDK5/p35 (Homo sapiens, UniProt Q00535); details: ATP Km, read-out: Percentage of inhibition
T29 construct: purchased Life Technologies
T29 sequence (Q00535 whole entry): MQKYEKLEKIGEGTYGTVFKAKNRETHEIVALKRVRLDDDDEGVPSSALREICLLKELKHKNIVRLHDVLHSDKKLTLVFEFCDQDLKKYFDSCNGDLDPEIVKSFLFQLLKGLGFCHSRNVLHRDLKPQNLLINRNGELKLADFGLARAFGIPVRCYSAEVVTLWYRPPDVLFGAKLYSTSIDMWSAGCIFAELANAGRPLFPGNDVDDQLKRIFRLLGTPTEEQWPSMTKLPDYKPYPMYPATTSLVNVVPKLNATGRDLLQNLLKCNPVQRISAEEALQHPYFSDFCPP
T29 sequence (Q15078 whole entry partner): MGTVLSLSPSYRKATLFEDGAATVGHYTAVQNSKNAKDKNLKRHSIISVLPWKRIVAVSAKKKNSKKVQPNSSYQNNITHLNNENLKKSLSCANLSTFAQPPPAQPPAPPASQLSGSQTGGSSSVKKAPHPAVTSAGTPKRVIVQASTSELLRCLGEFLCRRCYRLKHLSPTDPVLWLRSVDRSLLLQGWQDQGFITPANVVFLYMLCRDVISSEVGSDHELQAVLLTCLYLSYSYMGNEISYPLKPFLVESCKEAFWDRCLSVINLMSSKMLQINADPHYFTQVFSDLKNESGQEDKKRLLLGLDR
Summary of the method: as §1

COc1ccc2[nH]c3c(=O)[nH]c4ccc(O)cc4c3c2c1 [Compound 55, 2-Hydroxy-10-methoxy-5,7-dihydro-6H-indolo[2,3-c]quinolin-6-one]
inhibition at 1 µM (NEK2): -11%
inhibition at 1 µM (CAMK1G (CAMKI gamma)): 14%
inhibition at 1 µM (PRKCI (PKC iota)): 6%
inhibition at 1 µM (PRKCD (PKC delta)): 7%
inhibition at 1 µM (ABL1 G250E): 48%
inhibition at 1 µM (PTK2 (FAK)): 25%
inhibition at 1 µM (INSRR (IRR)): 52%
inhibition at 1 µM (STK23 (MSSK1)): 4%
inhibition at 1 µM (RAF1 (cRAF) Y340D Y341D): 94%
inhibition at 1 µM (PAK6): 4%
inhibition at 1 µM (STK22D (TSSK1)): 19%
inhibition at 1 µM (CAMK2B (CaMKII beta)): 12%
inhibition at 1 µM (MAP3K19 (YSK4)): 49%
inhibition at 1 µM (PDGFRA (PDGFR alpha)): 43%
inhibition at 1 µM (EPHA2): 40%
inhibition at 1 µM (MAPK14 (p38 alpha)): 12%
inhibition at 1 µM (TXK): 22%
inhibition at 1 µM (MAPK8 (JNK1)): 15%
inhibition at 1 µM (PDGFRA V561D): 79%
inhibition at 1 µM (ABL1 Y253F): 55%
inhibition at 1 µM (PRKD2 (PKD2)): 39%
inhibition at 1 µM (MKNK1 (MNK1)): 7%
inhibition at 1 µM (PRKACA (PKA)): 8%
inhibition at 1 µM (TBK1): 49%
inhibition at 1 µM (MAPK7 (ERK5)): 8%
inhibition at 1 µM (ABL1 F317L): 9%
inhibition at 1 µM (PDGFRA D842V): 49%
inhibition at 1 µM (PRKCQ (PKC theta)): 7%
inhibition at 1 µM (RET Y791F): 96%
inhibition at 1 µM (NTRK3 (TRKC)): 93%
inhibition at 1 µM (DYRK1B): 96%
inhibition at 1 µM (LYN B): 67%
inhibition at 1 µM (EGFR (ErbB1) G719C): 8%
inhibition at 1 µM (TYRO3 (RSE)): 60%
inhibition at 1 µM (SYK): 82%
inhibition at 1 µM (JAK1): 23%
inhibition at 1 µM (CDK5/p35): 32%
